Test results: ChEMBL document CHEMBL1201862, “PubChem BioAssay data set” (2004)
The source made the active and inactive calls.

What was measured:
[1] = molecular target: DNA dC->dU-editing enzyme APOBEC-3G (Homo sapiens, UniProt Q9HC16); experiment: Dose Response confirmation of small molecule APOBEC3G DNA Deaminase Inhibitors via a fluorescence-based single-stranded DNA deaminase assay. [Related pubchem assays (depositor defined):AID493012, AID493028]; type: functional
[2] = molecular target: T1, Mannose-6-phosphate isomerase (Homo sapiens, UniProt P34949); experiment: human PMI inhibitors, high substrate, primary screen, biochemical, fluorescence intensity, high mannose 6-phosphate (AID 1220)
T1 sequence (P34949 whole entry): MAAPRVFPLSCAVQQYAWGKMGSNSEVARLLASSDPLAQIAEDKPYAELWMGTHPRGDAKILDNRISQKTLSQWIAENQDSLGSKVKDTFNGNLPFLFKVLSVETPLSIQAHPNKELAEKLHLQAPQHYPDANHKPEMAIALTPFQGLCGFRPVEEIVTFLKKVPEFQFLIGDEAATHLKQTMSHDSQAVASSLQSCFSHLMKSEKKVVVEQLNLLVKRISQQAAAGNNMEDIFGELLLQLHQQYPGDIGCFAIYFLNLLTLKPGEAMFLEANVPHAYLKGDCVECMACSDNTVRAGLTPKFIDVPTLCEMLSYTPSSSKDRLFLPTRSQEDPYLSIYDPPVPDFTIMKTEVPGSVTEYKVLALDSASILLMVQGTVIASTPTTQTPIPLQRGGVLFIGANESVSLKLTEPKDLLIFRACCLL

cells [3] = type: functional, cell-based
[4] = M. tuberculosis H37Rv growth inhibitors, H37Rv strain (AID 1626); type: functional
cells [5] = type: functional, cell-based; remark: listed apart in the source
[6] = inhibitors of SNCA 5'UTR-driven reporter translation, confirmation, H4 neuroglioma cells, luminescence (AID 1988); type: functional, cell-based
[7] = cytotoxicity in HEK-293T cells, dose response, cytotoxicity control for TCR NF-kB inhibitor project, luminescence, T-cell screen hits (AID 489026); type: functional, cell-based;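 further: cells exposed to compound about 14 hours before the viability readout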
[8] = molecular target: T2, Heat shock factor protein 1 (Mus musculus, UniProt P38532); experiment: inhibition of MG132-induced HSE-luciferase signal, confirmation, cell-based, NIH3T3, luminescence, dose retest (AID 2382); type: functional;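 further: NIH3T3 fibroblasts with HSF1-driven luciferase reporter stressed by proteasome inhibitor MG132; luminescence from HSF1-driven luciferase expression after 8 hours of MG132 stress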
T2 sequence (P38532 whole entry): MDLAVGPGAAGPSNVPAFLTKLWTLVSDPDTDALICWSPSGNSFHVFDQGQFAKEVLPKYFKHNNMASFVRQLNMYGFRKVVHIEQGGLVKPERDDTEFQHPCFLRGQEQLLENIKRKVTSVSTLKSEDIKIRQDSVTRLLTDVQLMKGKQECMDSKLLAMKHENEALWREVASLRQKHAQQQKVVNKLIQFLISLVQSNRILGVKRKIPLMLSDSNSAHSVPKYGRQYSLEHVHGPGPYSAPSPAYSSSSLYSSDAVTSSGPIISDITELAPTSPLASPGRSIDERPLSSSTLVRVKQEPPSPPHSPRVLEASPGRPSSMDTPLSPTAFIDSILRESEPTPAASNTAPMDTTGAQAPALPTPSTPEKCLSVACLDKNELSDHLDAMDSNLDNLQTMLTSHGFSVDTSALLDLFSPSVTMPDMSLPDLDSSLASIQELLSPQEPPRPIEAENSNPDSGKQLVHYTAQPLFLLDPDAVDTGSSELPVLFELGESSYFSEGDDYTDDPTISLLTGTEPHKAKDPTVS

cells [9] = type: functional, cell-based; remark: listed apart in the source
[10] = inhibitors of SNCA 5'UTR-driven translation, confirmation, luminescence, H4 neuroglioblastoma cells, dose confirmation (AID 2454); type: functional, cell-based;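 further: H4 neuroglioblastoma cells carrying an alpha-synuclein 5'UTR luciferase reporter; potency for inhibition of the luciferase signal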
[11] = luciferase reporter signal reduction – luminescence, H4-C neuroglioblastoma cells, dose response (AID 2458); type: functional, cell-based;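 further: H4 neuroglioblastoma cells stably carrying a luciferase reporter gene fusion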
[12] = Luminescence Cell-Based Dose Response HTS to Identify Inhibitors of 5'UTR Stem-Loop Driven Prion Protein mRNA Translation in H4 Neuroglioblastoma Cells. [Related pubchem assays: 1827 (Project Summary), 1813 (Primary HTS)]; type: functional
[13] = inhibitors of firefly luciferase expression or activity, dose response, H4 neuroglioma cells, luminescence (AID 1990); type: functional, cell-based
[14] = cytotoxicity toward HT-29 cells – cell-based, CellTiter-Glo luminescence, IC50, dose response (AID 1117330); type: functional
[15] = human group III sPLA2 inhibitors, dose response, biochemical, QFRET, IC50 (AID 743457);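 further: green fluorescence rise as the enzyme cleaves BODIPY PC-A2 in liposomes; potency for inhibition of the enzyme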
[16] = HeLa 2N DNA content increase, dose response, cell-based, IC50 (AID 1117349); type: functional
[17] = RKO cell viability reduction, dose response, CellTiter-Glo luminescence (AID 1117322); type: functional
[18] = Concentration-dependent survival of SW480 colon cancer line, luminescence detection with CellTiter-Glo, half-maximal inhibitory concentration (AID 1117338); type: functional
[19] = HeLa 4N DNA content increase, dose response, cell-based, IC50 (AID 1117351); type: functional
[20] = CellTiter-Glo luminescent dose response of DLD-1 viability loss (AID 1117352); type: functional
[21] = cytotoxicity toward HCT116 cells – cell-based, CellTiter-Glo luminescence, IC50, dose response (AID 1117332); type: functional; conditions: HCT-116
[22] = SNU-C1 cell viability reduction, dose response, CellTiter-Glo luminescence (AID 1117323); type: functional, cell-based
[23] = cytotoxicity toward Colo320 cells – cell-based, CellTiter-Glo luminescence, IC50, dose response (AID 1117334); type: functional; conditions: COLO 320
[24] = molecular target: Heat shock protein HSP 90-alpha (Homo sapiens, UniProt P07900); experiment: Luminescence-based dose response biochemical high throughput screening assay for inhibitors of the Heat Shock Protein 90 (HSP90). [Related pubchem assays: 1831 (Summary AID.), 1846 (Confirmation screen.), 1789 (Primary screen.)]
[25] = molecular target: T1, Mannose-6-phosphate isomerase; experiment: inhibitors of human PMI, primary screen, biochemical, fluorescence intensity, coupled assay (AID 1209)
[26] = inhibitors of Vif binding to APOBEC3G peptide, primary screen, biochemical, TR-FRET, GST-Vif 1-94, biotin-A3G peptide, dose response retest (AID 1117319); type: functional;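 further: TR-FRET signal of purified GST-Vif binding a biotinylated A3G peptide; inhibitors lower the FRET signal by blocking Vif and A3G binding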
[27] = molecular target: Voltage-gated inwardly rectifying potassium channel KCNH2 (Homo sapiens, UniProt Q12809); experiment: hERG protection from proarrhythmic block, potency, dose response, cell-based, thallium flux (AID 2121); type: ADME
Chain of Voltage-gated inwardly rectifying potassium channel KCNH2 (Q12809 whole entry): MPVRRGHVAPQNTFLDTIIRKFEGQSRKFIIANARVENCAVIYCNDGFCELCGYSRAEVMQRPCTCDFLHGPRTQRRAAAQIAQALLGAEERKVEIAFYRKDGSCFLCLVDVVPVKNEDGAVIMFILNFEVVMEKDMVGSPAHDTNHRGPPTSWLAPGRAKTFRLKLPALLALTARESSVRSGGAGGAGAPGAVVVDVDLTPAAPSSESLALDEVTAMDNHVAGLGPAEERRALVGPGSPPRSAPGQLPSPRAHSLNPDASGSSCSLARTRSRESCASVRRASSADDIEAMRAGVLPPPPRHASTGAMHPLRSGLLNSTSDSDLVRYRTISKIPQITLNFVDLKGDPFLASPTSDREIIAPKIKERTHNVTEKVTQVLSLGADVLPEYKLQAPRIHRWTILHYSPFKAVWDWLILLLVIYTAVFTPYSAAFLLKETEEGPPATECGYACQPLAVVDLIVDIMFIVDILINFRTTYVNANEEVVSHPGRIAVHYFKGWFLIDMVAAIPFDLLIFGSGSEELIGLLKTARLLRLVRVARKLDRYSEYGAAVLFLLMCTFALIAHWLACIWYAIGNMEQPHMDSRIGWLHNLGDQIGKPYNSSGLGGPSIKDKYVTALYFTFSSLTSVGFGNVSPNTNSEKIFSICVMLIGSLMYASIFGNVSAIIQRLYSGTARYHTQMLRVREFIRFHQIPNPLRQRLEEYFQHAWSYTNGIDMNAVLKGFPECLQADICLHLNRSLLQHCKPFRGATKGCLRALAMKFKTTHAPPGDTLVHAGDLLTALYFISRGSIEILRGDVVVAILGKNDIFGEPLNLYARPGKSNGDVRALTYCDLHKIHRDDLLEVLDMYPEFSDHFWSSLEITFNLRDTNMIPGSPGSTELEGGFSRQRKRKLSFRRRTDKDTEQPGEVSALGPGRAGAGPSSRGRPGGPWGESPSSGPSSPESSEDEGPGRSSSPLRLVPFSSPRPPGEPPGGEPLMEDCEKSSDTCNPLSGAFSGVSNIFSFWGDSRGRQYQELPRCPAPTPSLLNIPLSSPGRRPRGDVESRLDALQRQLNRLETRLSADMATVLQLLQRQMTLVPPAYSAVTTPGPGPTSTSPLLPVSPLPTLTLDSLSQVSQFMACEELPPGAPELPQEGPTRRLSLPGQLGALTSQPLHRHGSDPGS

Chain of DNA dC->dU-editing enzyme APOBEC-3G (Q9HC16 whole entry): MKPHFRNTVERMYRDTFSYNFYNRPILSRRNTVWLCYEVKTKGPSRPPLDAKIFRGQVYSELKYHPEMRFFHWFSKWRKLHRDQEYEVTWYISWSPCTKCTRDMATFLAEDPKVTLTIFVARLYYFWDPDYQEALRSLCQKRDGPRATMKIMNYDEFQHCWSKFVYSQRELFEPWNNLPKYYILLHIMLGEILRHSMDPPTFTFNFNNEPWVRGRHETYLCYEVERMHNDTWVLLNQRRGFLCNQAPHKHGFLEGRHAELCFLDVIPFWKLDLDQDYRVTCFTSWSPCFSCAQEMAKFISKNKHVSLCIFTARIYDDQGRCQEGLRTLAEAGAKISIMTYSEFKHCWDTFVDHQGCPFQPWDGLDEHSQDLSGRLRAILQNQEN

O=C(/C=C/c1ccccc1)Nc1cccc(S(=O)(=O)Nc2ccccc2F)c1
IC50 [1]: 31.9 µM (active)
IC50 [2]: 20 µM (active)

CCOc1ccc(/C=C/C(=O)c2ccccc2)cc1OC
EC50 (cells [3]): > 350 µM (not active)
IC50 [4]: > 100 µM (active)
EC50 (cells [5]): 10.2 µM (active)

Cc1nn(-c2ccccc2Cl)c(Cl)c1/C=N/Nc1nc2ccccc2s1
EC50 [6]: < 0.1 µM (active)
IC50 [7]: > 80 µM (inactive)
EC50 [8]: < 0.16 µM (active)
EC50 (cells [9]): 0.036 µM (active)
EC50 [10]: 0.1 µM (active)
EC50 [11]: 0.086 µM (active)
EC50 [12]: < 0.1 µM (active)
EC50 [13]: < 0.1 µM (active)

Cc1ccc2c(c1)c1c3n2CCNC3CCC1 (configuration not stated)
IC50 [14]: > 20 µM (inactive)
IC50 [15]: > 122 µM (inactive)
IC50 [16]: > 10 µM (inactive)
IC50 [17]: > 20 µM (inactive)
IC50 [18]: > 20 µM (inactive)
IC50 [19]: > 10 µM (inactive)
IC50 [20]: > 20 µM (inactive)
IC50 [21]: > 20 µM (inactive)
IC50 [22]: 2.48 µM (active)
IC50 [23]: > 20 µM (inactive)

Cc1cccc(N(O)C(=O)Nc2cccc(Cl)c2)c1
IC50 [24]: 5.44 µM (active)

Cc1cc(C)cc(N2C(=O)CC(Sc3nnc[nH]3)C2=O)c1 (configuration not stated)
IC50 [25]: > 50 µM (not active)

Cc1ccc(CCNC(=O)C2CCCN(S(=O)(=O)c3c(C)noc3/C=C/N(C)C)C2)cc1 (configuration not stated)
IC50 [26]: > 100 µM (active)

COC(=O)c1c(NS(=O)(=O)c2ccc3ccccc3c2)sc2c1CCCC2
EC50 [27]: 7.18 µM (active)
